The values below come from PubChem BioAssay (NCI).

Test systems include HCT-15 colon; OVCAR-8 ovarian; TK-10 renal; OVCAR-5 ovarian; NCI-H522 lung; NCI-H226 lung; SK-MEL-28 melanoma; HCT-116 colon; SF-268 CNS; SR leukemia; SK-OV-3 ovarian; HOP-92 NSCLC.
What all share (assay): NCI tumour cell line growth inhibition, 48 h

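Compound exposure: 48 hours, 5 concentrations, 96-well plates. At the TGI there is no net growth.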

Take `CCCCCCN(CCCCCC)CCC(=O)c1ccc2cc(Br)c3ccccc3c2c1`: the TGI in the experiment with HCT-15 colon is > 100 µM; with OVCAR-8 ovarian it was > 100 µM; in the experiment with TK-10 renal, 65.2 µM; in the experiment on OVCAR-5 ovarian it was > 100 µM; with NCI-H522 lung it was 87.1 µM; with NCI-H226 lung, > 100 µM. The TGI in the experiment on SK-MEL-28 melanoma was > 100 µM; in the experiment with HCT-116 colon, > 100 µM; with SF-268 CNS, > 100 µM; in the experiment with SR leukemia, 14.3 µM; with SK-OV-3 ovarian, > 100 µM; in the experiment with HOP-92 NSCLC it was 64.9 µM.

Turning to `COC(=O)C(CNC(=O)/C=C/c1ccc(OC)c(OC)c1)NC(=O)/C=C/c1ccc(OC)c(OC)c1` (stereo not given), the TGI with HCT-15 colon, in the experiment on OVCAR-8 ovarian, in the experiment with TK-10 renal, in the experiment with OVCAR-5 ovarian, in the experiment on NCI-H522 lung and in the experiment with NCI-H226 lung was > 100 µM each time. The TGI with SK-MEL-28 melanoma, in the experiment on HCT-116 colon, with SF-268 CNS, with SR leukemia, in the experiment on SK-OV-3 ovarian and in the experiment with HOP-92 NSCLC was > 100 µM throughout.

For `COc1ccc(/C=C2\N=C(N3CCCC(CO)C3)NC2=O)cc1` (stereo not given), the TGI in the experiment on HCT-15 colon, with OVCAR-8 ovarian, in the experiment with TK-10 renal, in the experiment on OVCAR-5 ovarian, with NCI-H522 lung and in the experiment with NCI-H226 lung was > 100 µM in each case. The TGI in the experiment with SK-MEL-28 melanoma, with HCT-116 colon, in the experiment with SF-268 CNS, with SR leukemia, in the experiment with SK-OV-3 ovarian and in the experiment on HOP-92 NSCLC was > 100 µM each time.

Take `O=C(Cc1ccc2ccccc2c1)NCc1ccc(C(=O)NCCc2ccccc2)cc1`: the TGI in the experiment on HCT-15 colon, in the experiment on OVCAR-8 ovarian, in the experiment with TK-10 renal, in the experiment on OVCAR-5 ovarian, in the experiment with NCI-H522 lung and with NCI-H226 lung was > 100 µM throughout. The TGI in the experiment on SK-MEL-28 melanoma, in the experiment on HCT-116 colon, in the experiment with SF-268 CNS, in the experiment on SR leukemia, with SK-OV-3 ovarian and with HOP-92 NSCLC was > 100 µM throughout.

For the compound `O=C(Nc1ccccc1)N(CCN(Cc1ccccc1)C(=O)Nc1ccccc1)CCN(Nc1ccccc1)C(=O)Nc1ccccc1`, the TGI in the experiment with HCT-15 colon, in the experiment with OVCAR-8 ovarian, in the experiment on TK-10 renal, with OVCAR-5 ovarian, in the experiment with NCI-H522 lung and with NCI-H226 lung was > 100 µM throughout. Also, the TGI with SK-MEL-28 melanoma, with HCT-116 colon, in the experiment on SF-268 CNS, in the experiment with SR leukemia, with SK-OV-3 ovarian and in the experiment with HOP-92 NSCLC was > 100 µM throughout.

For `COc1ccc(C2SCC(=O)N2c2ccc(-n3c(-c4ccccc4)nc4ccccc4c3=O)cc2)cc1` (stereo not given), the TGI in the experiment with HCT-15 colon, with OVCAR-8 ovarian, in the experiment with TK-10 renal, in the experiment with OVCAR-5 ovarian, in the experiment with NCI-H522 lung and with NCI-H226 lung was > 100 µM in each case. Besides, the TGI in the experiment with SK-MEL-28 melanoma, with HCT-116 colon, in the experiment on SF-268 CNS, with SR leukemia, in the experiment with SK-OV-3 ovarian and in the experiment on HOP-92 NSCLC was > 100 µM in each case.

In the case of `CC1OC(OC2C(O)COC(OC3C(C)OC(OC4C(OC(=O)[C@]56CCC(C)(C)C[C@@H]5C5=CCC7[C@@]8(C)C[C@H](O)[C@H](OC9OC(CO)C(O)C(O)C9O)[C@@](C)(CO)[C@@H]8CC[C@@]7(C)[C@]5(C)CC6)OCC(O)C4O)C(O)C3O)C2O)C(O)C(O)C1O` (stereo not given in full), the TGI in the experiment with HCT-15 colon is 50.8 µM; in the experiment with OVCAR-8 ovarian, 43.4 µM; in the experiment with TK-10 renal, 35.3 µM; in the experiment with OVCAR-5 ovarian, 36.4 µM; in the experiment with NCI-H522 lung, > 100 µM; in the experiment on NCI-H226 lung it was 50.2 µM. Further, the TGI was determined as 32.2 µM in the experiment with SK-MEL-28 melanoma; 57.2 µM in the experiment on HCT-116 colon; 49.4 µM in the experiment on SF-268 CNS; 46.9 µM with SR leukemia; 37.8 µM in the experiment on SK-OV-3 ovarian; 45.2 µM in the experiment with HOP-92 NSCLC.

Regarding `CC(C)(C)C1=CC(=N/N=c2\scc(-c3ccccc3)n2-c2ccccc2)C=C(C(C)(C)C)C1=O`, the TGI with HCT-15 colon, in the experiment on OVCAR-8 ovarian, in the experiment with TK-10 renal, with OVCAR-5 ovarian, in the experiment with NCI-H522 lung and in the experiment on NCI-H226 lung was > 100 µM in each case. Also, the TGI in the experiment with SK-MEL-28 melanoma, with HCT-116 colon, in the experiment with SF-268 CNS, in the experiment with SR leukemia, with SK-OV-3 ovarian and in the experiment with HOP-92 NSCLC was > 100 µM throughout.

On to `NS(=O)(=O)c1ccc(NC(=O)N/N=C/c2ccccc2[N+](=O)[O-])cc1`, for which the TGI in the experiment with HCT-15 colon, with OVCAR-8 ovarian, in the experiment on TK-10 renal, with OVCAR-5 ovarian, in the experiment with NCI-H522 lung and with NCI-H226 lung was > 100 µM each time. Moreover, the TGI in the experiment with SK-MEL-28 melanoma, with HCT-116 colon, in the experiment with SF-268 CNS, in the experiment on SR leukemia, with SK-OV-3 ovarian and in the experiment on HOP-92 NSCLC was > 100 µM in each case.

For `COC(=O)[C@H](Cc1ccccc1)NC(=O)c1ccc(CNC(=O)/C=C/c2ccc(OCc3ccccc3)cc2)cc1`, the TGI in the experiment on HCT-15 colon was > 100 µM; with OVCAR-8 ovarian it was 36.4 µM; in the experiment with TK-10 renal it was 32 µM; with OVCAR-5 ovarian, > 81.6 µM; in the experiment on NCI-H522 lung it was > 100 µM; with NCI-H226 lung, 49.8 µM. Also, the TGI is 25.2 µM in the experiment with SK-MEL-28 melanoma; > 100 µM with HCT-116 colon; 28.1 µM with SF-268 CNS; > 100 µM in the experiment on SR leukemia; 59.9 µM in the experiment on SK-OV-3 ovarian; 9.43 µM with HOP-92 NSCLC.

Turning to `COc1ccc2[nH]cc(CCNC(=O)[C@H](Cc3ccc(O)cc3)NC(=O)[C@@H](NCC(F)(F)F)C(C)C)c2c1`, the TGI in the experiment with HCT-15 colon, with OVCAR-8 ovarian, in the experiment on TK-10 renal, in the experiment on OVCAR-5 ovarian, with NCI-H522 lung and with NCI-H226 lung was > 100 µM each time. The TGI in the experiment with SK-MEL-28 melanoma, in the experiment with HCT-116 colon, in the experiment with SR leukemia, in the experiment on SK-OV-3 ovarian and with HOP-92 NSCLC was > 100 µM in each case.

Turning to `O=S(=O)(O)c1ccc(N=Nc2ccccc2)cc1`, the TGI in the experiment with HCT-15 colon, in the experiment on OVCAR-8 ovarian, with TK-10 renal, with OVCAR-5 ovarian, with NCI-H522 lung and with NCI-H226 lung was > 100 µM throughout. For the same compound, the TGI with SK-MEL-28 melanoma, with HCT-116 colon, with SF-268 CNS, in the experiment with SR leukemia, in the experiment on SK-OV-3 ovarian and in the experiment with HOP-92 NSCLC was > 100 µM throughout.

Consider `C=C1C2CCC3C4(C)CCCC(C)(C(=O)O)C4CCC3(C2)C1OC(=O)/C(C)=C/C` (stereo not given), for which the TGI with HCT-15 colon is 61.6 µM; in the experiment on OVCAR-8 ovarian it was > 100 µM; with TK-10 renal, > 100 µM; in the experiment on OVCAR-5 ovarian, 79.5 µM; in the experiment on NCI-H522 lung, > 100 µM; in the experiment with NCI-H226 lung it was > 100 µM. Moreover, the TGI was > 100 µM in the experiment with SK-MEL-28 melanoma; > 100 µM with HCT-116 colon; > 100 µM in the experiment with SF-268 CNS; 9.55 µM in the experiment on SR leukemia; 70.2 µM in the experiment with SK-OV-3 ovarian; 54.6 µM in the experiment on HOP-92 NSCLC.

Take `C#CC1(O)CCC2[C@@H]3CCc4cc(Oc5nc(F)nc(-c6c(C)c(C(=O)OCC)n7ccccc67)n5)ccc4C3CC[C@@]21C` (stereo not given in full): the TGI with HCT-15 colon, in the experiment with OVCAR-8 ovarian, in the experiment on TK-10 renal, in the experiment on OVCAR-5 ovarian, with NCI-H522 lung and in the experiment on NCI-H226 lung was > 100 µM throughout. Also, the TGI in the experiment with SK-MEL-28 melanoma, in the experiment on HCT-116 colon, with SF-268 CNS, with SR leukemia, with SK-OV-3 ovarian and in the experiment with HOP-92 NSCLC was > 100 µM in each case.

As to `COc1ccc(/C=N\N(C)Cc2cccc3ccsc23)cc1`, the TGI in the experiment on HCT-15 colon, in the experiment on OVCAR-8 ovarian, in the experiment with TK-10 renal, in the experiment on OVCAR-5 ovarian, in the experiment with NCI-H522 lung and with NCI-H226 lung was > 100 µM each time. Further, the TGI in the experiment with SK-MEL-28 melanoma, in the experiment on HCT-116 colon, with SF-268 CNS, with SR leukemia, in the experiment on SK-OV-3 ovarian and in the experiment with HOP-92 NSCLC was > 100 µM each time.

As to `Cn1c(-c2ccco2)ccc1-c1ccc(C=O)o1`, the TGI with HCT-15 colon, with OVCAR-8 ovarian, with TK-10 renal, in the experiment with OVCAR-5 ovarian, in the experiment on NCI-H522 lung and in the experiment with NCI-H226 lung was > 100 µM each time. For the same compound, the TGI in the experiment with SK-MEL-28 melanoma was > 100 µM; in the experiment with HCT-116 colon it was 53.1 µM; in the experiment with SR leukemia, > 100 µM; in the experiment with SK-OV-3 ovarian it was > 100 µM; with HOP-92 NSCLC it was > 100 µM.
